IC50 data for 33 compounds are collected here from patent US20140073634A1 (Institute For Applied Cancer Science/The University of …, priority 2012, published 2014).

The first experiment concerns 293T-HRE-GFP-luc cells. The experiment is described as follows: Cell-based reporter assay for IC50 determinations (HRE-luciferase, hypoxia). To be noted: 6 h, 6 hrs hypoxia (1% O2), luminescence. The procedure, abridged: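 IC50s come from four-parameter logistic fits of luminescence. Compounds in 1:3 DMSO series were added to 293T-HRE-GFP-luc cells, 30 min normoxia preceding 6 hrs at 1% O2, 37° C; HRE-luciferase signal was then measured with Steadylite Plus reagent.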
(In general: A reporter such as luciferase makes a cellular process visible.)
The compound `CS(=O)(=O)C1CCN(c2cccc(Cn3cc(-c4noc(-c5ccc(N6CCOCC6)cc5)n4)ccc3=O)c2)CC1` [Example 77, 1-(3-(4-(Methylsulfonyl)piperidin-1-yl)benzyl)-5-(5-(4-morpholinophenyl)-1,2,4-oxadiazol-3-yl)pyridin-2(1H)-one] displayed an IC50 of less than 100 nM.
In turn, `CC(C)Oc1ccc(-c2nc(-c3ccc(=O)n(Cc4cccc(N5CCC(S(C)(=O)=O)CC5)c4)c3)no2)cc1` [Example 78, 5-(5-(4-Isopropoxyphenyl)-1,2,4-oxadiazol-3-yl)-1-(3-(4-(methylsulfonyl)piperidin-1-yl)benzyl)pyridin-2(1H)-one] had a half-maximal inhibitory concentration (IC50) of less than 100 nM.
`COCCOc1cccc(Cn2cc(-c3nc(-c4ccc(C5(O)CCCCC5)cc4)no3)ccc2=O)c1` [Example 80, 5-(3-(4-(1-Hydroxycyclohexyl)phenyl)-1,2,4-oxadiazol-5-yl)-1-(3-(2-methoxyethoxy)benzyl)pyridin-2(1H)-one]: the IC50 was less than 100 nM.
Same read-out and setting: next, `COCCOc1cccc(Cn2cc(-c3noc(-c4ccc(C(C)(C)OC)cc4)n3)ccc2=O)c1` [Example 81, 1-(3-(2-Methoxyethoxy)benzyl)-5-(5-(4-(2-methoxypropan-2-yl)phenyl)-1,2,4-oxadiazol-3-yl)pyridin-2(1H)-one]: less than 100 nM; `CS(=O)(=O)C1CCN(c2cccc(Cn3nc(-c4nc(-c5ccc(OC(F)F)cc5)no4)ccc3=O)c2)CC1` [Example 82, 6-(3-(4-(Difluoromethoxy)phenyl)-1,2,4-oxadiazol-5-yl)-2-(3-(4-(methylsulfonyl)piperidin-1-yl)benzyl)pyridazin-3(2H)-one]: less than 100 nM; `CS(=O)(=O)C1CCN(c2cccc(Cn3nc(-c4nc(-c5ccc(N6CCOCC6)cc5)no4)ccc3=O)c2)CC1` [Example 83, 2-(3-(4-(Methylsulfonyl)piperidin-1-yl)benzyl)-6-(3-(4-morpholinophenyl)-1,2,4-oxadiazol-5-yl)pyridazin-3(2H)-one]: less than 100 nM.
`COCCOc1cccc(Cn2cc(-c3noc(-c4ccc(C5CCCCC5)cc4)n3)ccc2=O)c1` [Example 84, 5-(5-(4-Cyclohexylphenyl)-1,2,4-oxadiazol-3-yl)-1-(3-(2-methoxyethoxy)benzyl)pyridin-2(1H)-one] returned an IC50 of less than 100 nM.
In the case of `COCCOc1cccc(Cn2cc(-c3noc(-c4ccc(S(=O)(=O)CC#N)cc4)n3)ccc2=O)c1` [Example 85, 2-(4-(3-(1-(3-(2-Methoxyethoxy)benzyl)-6-oxo-1,6-dihydropyridin-3-yl)-1,2,4-oxadiazol-5-yl)phenylsulfonyl)acetonitrile], the half-maximal inhibitory concentration (IC50) was 100 to 1000 nM.
Still for that read-out and setting: next, `COCCOc1cccc(Cn2cc(-c3noc(-c4cnc(SC)nc4)n3)ccc2=O)c1` [Example 86, 1-(3-(2-Methoxyethoxy)benzyl)-5-(5-(2-(methylthio)pyrimidin-5-yl)-1,2,4-oxadiazol-3-yl)pyridin-2(1H)-one]: less than 100 nM.
On to `COCCOc1cccc(Cn2cc(-c3noc(-c4cnc(OCC(C)C)nc4)n3)ccc2=O)c1` [Example 87, 5-(5-(2-Isobutoxypyrimidin-5-yl)-1,2,4-oxadiazol-3-yl)-1-(3-(2-methoxyethoxy)benzyl)pyridin-2(1H)-one], for which the half-inhibitory concentration (IC50) was less than 100 nM.
Compound `COCCOc1cccc(Cn2cc(-c3noc(-c4cnc(N5CCCCC5)nc4)n3)ccc2=O)c1` [Example 88, 1-(3-(2-Methoxyethoxy)benzyl)-5-(5-(2-(piperidin-1-yl)pyrimidin-5-yl)-1,2,4-oxadiazol-3-yl)pyridin-2(1H)-one] gave an IC50 of less than 100 nM.
`Cc1cnc(-c2nc(-c3ccc(C(C)(C)C)cc3)no2)nc1Cc1cccc(N2CCN(C)CC2)c1` [Example 89, 3-(4-(Tert-butyl)phenyl)-5-(5-methyl-4-(3-(4-methylpiperazin-1-yl)benzyl)pyrimidin-2-yl)-1,2,4-oxadiazole] returned a concentration for half-maximal inhibition (IC50) of less than 100 nM.
On the same count and under the same terms, next, `Cc1ncc(-c2nc(-c3ccc(OC(F)(F)F)cc3)no2)nc1Cc1cccc(N2CCN(C)CC2)c1` [Example 90, 5-(5-Methyl-6-(3-(4-methylpiperazin-1-yl)benzyl)pyrazin-2-yl)-3-(4-(trifluoromethoxy)phenyl)-1,2,4-oxadiazole]: less than 100 nM; `CN1CCN(c2cc(Cn3cc(-c4ncc(-c5ccc(OC(F)(F)F)cc5)o4)ccc3=O)ccn2)CC1` [Example 92, 1-((2-(4-Methylpiperazin-1-yl)pyridin-4-yl)methyl)-5-(5-(4-(trifluoromethoxy)phenyl)oxazol-2-yl)pyridin-2(1H)-one]: 100 to 1000 nM.
In turn, `COCCOc1cccc(Cn2cc(-c3nc(-c4ccc(OC(F)(F)F)cc4)co3)ccc2=O)c1` [Example 94, 1-(3-(2-Methoxyethoxy)benzyl)-5-(4-(4-(trifluoromethoxy)phenyl)oxazol-2-yl)pyridin-2(1H)-one] displayed a concentration for half-maximal inhibition (IC50) of less than 100 nM.
For the compound `CS(=O)(=O)CCCOc1cccc(Cn2cc(-c3nc(-c4ccc(OC(F)(F)F)cc4)co3)ccc2=O)c1` [Example 95, 1-(3-(3-(Methylsulfonyl)propoxy)benzyl)-5-(4-(4-(trifluoromethoxy)phenyl)oxazol-2-yl)pyridin-2(1H)-one], the IC50 was less than 100 nM.
On to `CN1CCN(c2cccc(Cn3cc(-c4cc(-c5ccc(OC(F)(F)F)cc5)on4)ccc3=O)c2)CC1` [Example 96a, 1-(3-(4-Methylpiperazin-1-yl)benzyl)-5-(5-(4-(trifluoromethoxy)phenyl)isoxazol-3-yl)pyridin-2(1H)-one], for which the IC50 is less than 100 nM.
For `CN1CCN(c2cccc(Cn3cc(-c4cc(-c5ccc(OC(F)(F)F)cc5)no4)ccc3=O)c2)CC1` [Example 96b, 1-(3-(4-methylpiperazin-1-yl)benzyl)-5-(3-(4-(trifluoromethoxy)phenyl)isoxazol-5-yl)pyridin-2(1H)-on], the IC50 is less than 100 nM.
`CN1CCN(c2cc(Cn3cc(-c4cc(-c5ccc(OC(F)(F)F)cc5)on4)ccc3=O)ccn2)CC1` [Example 97a, 1-((2-(4-Methylpiperazin-1-yl)pyridin-4-yl)methyl)-5-(5-(4-(trifluoromethoxy)phenyl)isoxazol-3-yl)pyridin-2(1H)-one] showed an IC50 of less than 100 nM.
Compound `CN1CCN(c2cc(Cn3cc(-c4cc(-c5ccc(OC(F)(F)F)cc5)no4)ccc3=O)ccn2)CC1` [Example 97b, 1-((2-(4-methylpiperazin-1-yl)pyridin-4-yl)methyl)-5-(3-(4-(trifluoromethoxy)phenyl)isoxazol-5-yl)pyridin-2(1H)-one] returned an IC50 of less than 100 nM.
`CS(=O)(=O)C1CCN(c2cccc(Cn3cc(-c4cc(-c5ccc(OC(F)(F)F)cc5)no4)ccc3=O)c2)CC1` [Example 98, 1-(3-(4-(Methylsulfonyl)piperidin-1-yl)benzyl)-5-(3-(4-(trifluoromethoxy)phenyl)isoxazol-5-yl)pyridin-2(1H)-one]: the concentration for half-maximal inhibition (IC50) is less than 100 nM.
As to `CS(=O)(=O)C1CCN(c2cccc(Cn3cc(-c4cc(-c5ccc(OC(F)(F)F)cc5)on4)ccc3=O)c2)CC1` [Example 99, 1-(3-(4-(Methylsulfonyl)piperidin-1-yl)benzyl)-5-(5-(4-(trifluoromethoxy)phenyl)isoxazol-3-yl)pyridin-2(1H)-one], the half-inhibitory concentration (IC50) was less than 100 nM.
The compound `CN1CCN(c2cccc(Cn3cc(-c4nnc(-c5ccc(OC(F)(F)F)cc5)o4)ccc3=O)c2)CC1` [Example 100, 1-Methyl-4-(3-((2-oxo-5-(5-(4-(trifluoromethoxy)phenyl)-1,3,4-oxadiazol-2-yl)pyridin-1(2H)-yl)methyl)phenyl)piperazin-1-ium 2,2,2-trifluoroacetate] showed an IC50 of less than 100 nM.
With `CN1CCN(c2cc(Cn3cc(-c4nnc(-c5ccc(OC(F)(F)F)cc5)o4)ccc3=O)ccn2)CC1` [Example 101, 1-Methyl-4-(4-((2-oxo-5-(5-(4-(trifluoromethoxy)phenyl)-1,3,4-oxadiazol-2-yl)pyridin-1(2H)-yl)methyl)pyridin-2-yl)piperazin-1-ium 2,2,2-trifluoroacetate], the IC50 lay within 100 to 1000 nM.
For the compound `COCCOc1cccc(Cn2cc(-c3nnc(-c4ccc(OC(F)(F)F)cc4)o3)ccc2=O)c1` [Example 102], the IC50 was less than 100 nM.
Still for that read-out and setting: next, `CC(C)(O)c1cccc(Cn2cc(-c3nnc(-c4ccc(OC(F)(F)F)cc4)o3)ccc2=O)c1` [Example 103]: less than 100 nM; `CS(=O)(=O)CCCOc1cccc(Cn2cc(-c3nnc(-c4ccc(OC(F)(F)F)cc4)o3)ccc2=O)c1` [Example 104]: less than 100 nM.
On the same count and under the same terms, next, `CS(=O)(=O)C1CCN(c2cccc(Cn3cc(-c4nnc(-c5ccc(OC(F)F)cc5)o4)ccc3=O)c2)CC1` [Example 105, 5-(5-(4-(Difluoromethoxy)phenyl)-1,3,4-oxadiazol-2-yl)-1-(3-(4-(methylsulfonyl)piperidin-1-yl)benzyl)pyridin-2(1H)-one]: less than 100 nM.
`CC(C)Oc1ccc(-c2nnc(-c3ccc(=O)n(Cc4cccc(N5CCC(S(C)(=O)=O)CC5)c4)n3)o2)cc1` [Example 106, 6-(5-(4-Isopropoxyphenyl)-1,3,4-oxadiazol-2-yl)-2-(3-(4-(methylsulfonyl)piperidin-1-yl)benzyl)pyridazin-3(2H)-one] had an IC50 of less than 100 nM.
As for `COC(=O)c1cccc(Cn2cc(-c3nc(-c4ccc(OC(F)(F)F)cc4)no3)ccc2=O)c1` [Example 107, methyl 3-((2-oxo-5-(3-(4-(trifluoromethoxy)phenyl)-1,2,4-oxadiazol-5-yl)pyridin-1(2H)-yl)methyl)benzoate], the half-maximal inhibitory concentration (IC50) lay within 100 to 1000 nM.
Same read-out and setting: next, `O=c1ccc(-c2nc(-c3ccc(OC(F)(F)F)cc3)no2)nn1Cc1ccc(F)c(Br)c1` [Example 108, 2-(3-bromo-4-fluorobenzyl)-6-(3-(4-(trifluoromethoxy)phenyl)-1,2,4-oxadiazol-5-yl)pyridazin-3(2H)-one]: 100 to 1000 nM.

The same experiment, now with this note: 6 hrs hypoxia (1% O2), luminescence.
Compound `CN1CCN(c2cccc(Cn3cc(-c4ncc(-c5ccc(OC(F)(F)F)cc5)o4)ccc3=O)c2)CC1` [Example 91, 1-(3-(4-Methylpiperazin-1-yl)benzyl)-5-(5-(4-(trifluoromethoxy)phenyl)oxazol-2-yl)pyridin-2(1H)-one] had an IC50 of less than 100 nM.
Consider `CN1CCN(c2cccc(Cn3cc(-c4nc(-c5ccc(OC(F)(F)F)cc5)co4)ccc3=O)c2)CC1` [Example 93, 1-(3-(4-Methylpiperazin-1-yl)benzyl)-5-(4-(4-(trifluoromethoxy)phenyl)oxazol-2-yl)pyridin-2(1H)-one], for which the half-maximal inhibitory concentration (IC50) was less than 100 nM.

One may read the IC50 as the point on the concentration scale where inhibition reaches its midpoint. A lower IC50 goes with greater potency.
